Calls of active or inactive are those of the source. The calls are words filed in the database; no cut-off is given here.
How the values were obtained:
[1] = biological target: TGF-beta receptor type-2 (Homo sapiens) (UniProt P37173); assay: Inhibition of human TGFBR2 (188 to end residues) using myelin basic protein as substrate measured after 120 mins in presence of [gamma33P]ATP by scintillation counting method; set-up: scale not given: the % may be the effect or the level left
[2] = biological target: Ribosomal protein S6 kinase alpha-2 (Homo sapiens) (UniProt Q15349); assay: Inhibition of recombinant full-length human Rsk3 assessed as residual activity at 10 uM using KKKNRTLSVA as substrate measured after 40 mins in presence of [gamma33P]ATP by scintillation counting method
[3] = biological target: Tyrosine-protein kinase receptor TYRO3 (Homo sapiens) (UniProt Q06418); assay: Inhibition of human RSE (451 to end residues) using KVEKIGEGTYGVVYK as substrate measured after 40 mins in presence of [gamma33P]ATP by scintillation counting method; set-up: scale not given: the % may be the effect or the level left
[4] = biological target: Serine/threonine-protein kinase 38-like (Homo sapiens) (UniProt Q9Y2H1); assay: Inhibition of recombinant human NDR2 (83 to end residues) assessed as residual activity at 10 uM using RSRSRSRSRSRSRSR as substrate measured after 40 mins in presence of [gamma33P]ATP by scintillation counting method
Serine/threonine-protein kinase 38-like (Homo sapiens), sequence (Q9Y2H1 2-464 limits assumed): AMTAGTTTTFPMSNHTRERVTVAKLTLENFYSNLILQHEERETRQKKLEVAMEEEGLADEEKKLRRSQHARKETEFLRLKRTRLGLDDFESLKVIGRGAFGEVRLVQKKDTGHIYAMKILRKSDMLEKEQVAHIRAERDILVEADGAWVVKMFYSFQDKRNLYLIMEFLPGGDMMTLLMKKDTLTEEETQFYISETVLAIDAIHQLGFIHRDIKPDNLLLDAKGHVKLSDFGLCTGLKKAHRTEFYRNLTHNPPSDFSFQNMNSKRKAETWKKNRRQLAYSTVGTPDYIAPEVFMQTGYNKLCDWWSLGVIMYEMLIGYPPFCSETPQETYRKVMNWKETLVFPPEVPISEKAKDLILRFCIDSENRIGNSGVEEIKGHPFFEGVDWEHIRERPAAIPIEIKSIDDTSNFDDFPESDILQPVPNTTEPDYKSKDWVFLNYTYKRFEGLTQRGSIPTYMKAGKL

[5] = system: Hepatocyte growth factor receptor (Homo sapiens), P08581 [Y1230C]; assay: Inhibition of recombinant human MET A1209G/V1290L/Y1248C mutant (974 to end residues) assessed as residual activity at 10 uM using KKKGQEEEYVFIE as substrate measured after 40 mins in presence of [gamma33P]ATP by scintillation counting method
[6] = biological target: Tyrosine-protein kinase ITK/TSK (Homo sapiens) (UniProt Q08881); assay: Inhibition of recombinant human ITK (352 to 617 residues) assessed as residual activity at 10 uM using myelin basic protein as substrate measured after 40 mins in presence of [gamma33P]ATP by scintillation counting method
Tyrosine-protein kinase ITK/TSK (Homo sapiens), sequence (Q08881 whole entry, the tested form may be a part): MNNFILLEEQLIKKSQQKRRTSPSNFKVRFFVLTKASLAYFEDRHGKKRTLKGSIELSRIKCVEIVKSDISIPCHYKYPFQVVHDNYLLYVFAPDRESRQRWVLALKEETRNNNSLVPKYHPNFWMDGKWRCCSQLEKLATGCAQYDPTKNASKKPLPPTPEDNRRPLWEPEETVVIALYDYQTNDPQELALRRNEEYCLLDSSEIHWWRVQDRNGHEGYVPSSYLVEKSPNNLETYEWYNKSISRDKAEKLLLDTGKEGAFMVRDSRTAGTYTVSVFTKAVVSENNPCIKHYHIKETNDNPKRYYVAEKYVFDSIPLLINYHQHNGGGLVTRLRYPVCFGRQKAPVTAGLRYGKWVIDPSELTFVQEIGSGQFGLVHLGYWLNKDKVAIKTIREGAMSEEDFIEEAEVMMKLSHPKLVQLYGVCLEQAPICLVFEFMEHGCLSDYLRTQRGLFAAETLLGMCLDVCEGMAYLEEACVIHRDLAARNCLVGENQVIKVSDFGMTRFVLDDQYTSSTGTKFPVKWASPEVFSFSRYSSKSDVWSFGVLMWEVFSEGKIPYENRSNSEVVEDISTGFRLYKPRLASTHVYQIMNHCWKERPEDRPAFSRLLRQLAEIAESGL

[7] = biological target: NUAK family SNF1-like kinase 1 (Homo sapiens) (UniProt O60285); assay: Inhibition of recombinant human ARK5 (2 to end residues) assessed as residual activity at 10 uM using KKKVSRSGLYRSPSMPENLNRPR as substrate measured after 40 mins in presence of [gamma33P]ATP by scintillation counting method
NUAK family SNF1-like kinase 1 (Homo sapiens), sequence (O60285 whole entry, the tested form may be a part): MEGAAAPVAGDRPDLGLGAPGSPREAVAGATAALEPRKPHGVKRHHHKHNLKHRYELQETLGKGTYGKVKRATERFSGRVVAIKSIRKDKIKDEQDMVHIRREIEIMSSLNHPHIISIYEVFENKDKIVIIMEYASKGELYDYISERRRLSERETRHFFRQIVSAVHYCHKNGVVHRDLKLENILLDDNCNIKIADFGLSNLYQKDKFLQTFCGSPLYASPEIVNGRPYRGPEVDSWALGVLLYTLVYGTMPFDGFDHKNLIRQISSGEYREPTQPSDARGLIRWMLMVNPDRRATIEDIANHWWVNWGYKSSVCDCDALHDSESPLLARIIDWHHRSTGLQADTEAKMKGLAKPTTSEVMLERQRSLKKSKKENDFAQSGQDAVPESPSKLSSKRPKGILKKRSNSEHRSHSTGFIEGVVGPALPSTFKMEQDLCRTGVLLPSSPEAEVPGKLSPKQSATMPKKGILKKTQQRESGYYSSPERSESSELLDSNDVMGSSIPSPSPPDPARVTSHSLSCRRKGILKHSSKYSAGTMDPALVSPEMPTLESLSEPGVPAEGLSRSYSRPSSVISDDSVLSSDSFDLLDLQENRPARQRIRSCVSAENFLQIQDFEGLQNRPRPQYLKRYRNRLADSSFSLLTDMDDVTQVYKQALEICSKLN

[8] = biological target: Fibroblast growth factor receptor 2 (Homo sapiens) (UniProt P21802); assay: Inhibition of recombinant human FGFR2 (456 to 770 residues) assessed as residual activity at 10 uM using poly(Glu, Tyr) 4:1 as substrate measured after 40 mins in presence of [gamma33P]ATP by scintillation counting method
Homo sapiens = species: Homo sapiens; assay: Inhibition of recombinant human EphB2 A848S/ K918E mutant (560 to end residues) assessed as residual activity at 10 uM using KTFCGTPEYLAPEVRREPRILSEEEQEMFRDFDYIADWC as substrate measured after 40 mins in presence of [gamma33P]ATP by scintillation counting method
Mus musculus = species: Mus musculus; assay: Inhibition of recombinant mouse ARG M982V/A562 mutant (27 to end residues) assessed as residual activity at 10 uM using EAIYAAPFAKKK as substrate measured after 40 mins in presence of [gamma33P]ATP by scintillation counting method
[9] = biological target: Dual specificity protein kinase CLK2 (Homo sapiens) (UniProt P49760); assay: Inhibition of recombinant human CLK2 (138 to end residues) assessed as residual activity at 10 uM using YRRAAVPPSPSLSRHSSPHQS(p)EDEEE as substrate measured after 40 mins in presence of [gamma33P]ATP by scintillation counting method
Dual specificity protein kinase CLK2 (Homo sapiens), sequence (P49760 whole entry, looked up): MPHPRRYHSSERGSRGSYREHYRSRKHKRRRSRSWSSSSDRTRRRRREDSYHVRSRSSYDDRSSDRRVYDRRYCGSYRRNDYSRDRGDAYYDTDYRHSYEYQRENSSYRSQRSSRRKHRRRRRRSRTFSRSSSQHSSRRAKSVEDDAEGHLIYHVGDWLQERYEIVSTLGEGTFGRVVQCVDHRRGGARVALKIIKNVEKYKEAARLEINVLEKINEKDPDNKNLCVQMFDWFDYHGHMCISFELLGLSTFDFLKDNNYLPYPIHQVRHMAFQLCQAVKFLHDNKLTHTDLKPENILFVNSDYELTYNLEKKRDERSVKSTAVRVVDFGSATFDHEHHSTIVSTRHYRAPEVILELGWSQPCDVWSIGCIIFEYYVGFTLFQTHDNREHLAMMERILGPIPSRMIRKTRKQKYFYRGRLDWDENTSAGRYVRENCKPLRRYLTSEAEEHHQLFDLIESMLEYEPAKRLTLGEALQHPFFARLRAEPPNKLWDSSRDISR

[10] = biological target: Dual specificity protein kinase CLK3 (Homo sapiens) (UniProt P49761); assay: Inhibition of recombinant full-length human CLK3 assessed as residual activity at 10 uM using ERMRPRKRQGSVRRRV as substrate measured after 40 mins in presence of [gamma33P]ATP by scintillation counting method
Dual specificity protein kinase CLK3 (Homo sapiens), sequence (P49761 whole entry, looked up): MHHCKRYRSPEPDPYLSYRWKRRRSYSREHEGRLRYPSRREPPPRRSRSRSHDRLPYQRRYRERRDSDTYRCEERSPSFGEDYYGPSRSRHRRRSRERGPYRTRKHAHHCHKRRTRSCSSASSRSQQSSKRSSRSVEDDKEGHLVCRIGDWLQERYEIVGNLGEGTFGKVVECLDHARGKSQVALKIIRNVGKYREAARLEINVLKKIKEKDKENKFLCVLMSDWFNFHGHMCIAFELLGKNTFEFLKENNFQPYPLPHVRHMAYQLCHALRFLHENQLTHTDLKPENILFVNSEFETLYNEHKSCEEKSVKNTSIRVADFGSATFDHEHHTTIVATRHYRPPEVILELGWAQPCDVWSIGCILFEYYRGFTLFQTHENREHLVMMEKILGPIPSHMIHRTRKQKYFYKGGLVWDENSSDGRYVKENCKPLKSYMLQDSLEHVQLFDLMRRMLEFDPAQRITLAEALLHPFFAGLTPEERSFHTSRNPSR

SW-620 [11] = assay: Induction of cell cycle arrest in human SW620 cells assessed as accumulation at G2/M phase after 24 hrs by propidium iodide-staining based flow cytometry; type: functional
SW-620 [12] = assay: Cell cycle arrest in human SW620 cells assessed as up regulation of CyclinB1 expression up to 150 nM after 24 hrs by Western blot analysis; type: functional, cell-based
[13] = Renal toxicity in nude BALB/c mouse at 80 mg/kg, po administered once daily for 4 weeks measured post-last dose by hematoxylin and eosin staining-based assay; type: organism-based; settings: in vivo, 672 h
[14] = system: Epidermal growth factor receptor (Homo sapiens), P00533 [L858R,T790M]; assay: Inhibition of recombinant human EGFR T790M/L858R mutant (696 to end residues) assessed as residual activity at 10 uM using GGMEDIYFEFMGGKKK as substrate measured after 40 mins in presence of [gamma33P]ATP by scintillation counting method
[15] = system: Receptor-type tyrosine-protein kinase FLT3 (Homo sapiens), P36888 [D835Y]; assay: Inhibition of recombinant human Flt3 D835Y mutant (564 to end residues) assessed as residual activity at 10 uM using EAIYAAPFAKKK as substrate measured after 40 mins in presence of [gamma33P]ATP by scintillation counting method
[16] = system: Macrophage colony-stimulating factor 1 receptor (Homo sapiens), P07333 [Y969C]; assay: Inhibition of recombinant human FMS Y969C mutant (538 to end residues) assessed as residual activity at 10 uM using EEEEYEEEEEEYYIIEEEEEEYEEEEEEYYEEEEEEKKKK as substrate measured after 40 mins in presence of [gamma33P]ATP by scintillation counting method
Macrophage colony-stimulating factor 1 receptor (Homo sapiens), P07333 [Y969C], sequence (P07333 whole entry Y969C, the tested form may be a part): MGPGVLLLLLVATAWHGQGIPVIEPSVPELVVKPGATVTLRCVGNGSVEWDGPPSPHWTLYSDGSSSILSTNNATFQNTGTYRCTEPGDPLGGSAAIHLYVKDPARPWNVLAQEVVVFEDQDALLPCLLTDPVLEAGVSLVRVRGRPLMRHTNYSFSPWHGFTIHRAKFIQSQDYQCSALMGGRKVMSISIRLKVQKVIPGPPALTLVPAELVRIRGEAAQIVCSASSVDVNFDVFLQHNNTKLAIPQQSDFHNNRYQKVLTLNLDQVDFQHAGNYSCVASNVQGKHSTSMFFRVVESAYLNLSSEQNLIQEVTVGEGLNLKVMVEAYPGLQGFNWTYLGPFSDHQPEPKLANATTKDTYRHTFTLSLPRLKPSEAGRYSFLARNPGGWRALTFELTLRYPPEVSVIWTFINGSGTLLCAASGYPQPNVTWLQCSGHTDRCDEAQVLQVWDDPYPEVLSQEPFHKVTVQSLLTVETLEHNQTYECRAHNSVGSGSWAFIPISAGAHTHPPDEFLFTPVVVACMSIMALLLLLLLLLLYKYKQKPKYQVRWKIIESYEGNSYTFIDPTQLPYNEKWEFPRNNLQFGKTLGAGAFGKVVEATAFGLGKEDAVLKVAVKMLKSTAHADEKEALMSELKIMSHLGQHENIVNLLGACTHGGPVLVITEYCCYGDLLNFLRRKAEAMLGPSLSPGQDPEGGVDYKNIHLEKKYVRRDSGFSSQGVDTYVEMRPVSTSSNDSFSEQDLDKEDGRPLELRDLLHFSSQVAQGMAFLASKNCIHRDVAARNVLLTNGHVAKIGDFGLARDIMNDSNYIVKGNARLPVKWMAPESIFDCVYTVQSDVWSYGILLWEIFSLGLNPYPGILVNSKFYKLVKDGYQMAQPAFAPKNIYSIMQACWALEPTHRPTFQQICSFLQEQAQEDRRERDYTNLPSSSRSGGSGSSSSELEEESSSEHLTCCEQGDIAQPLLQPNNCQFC

[17] = biological target: Tyrosine-protein kinase HCK (Homo sapiens) (UniProt P08631); assay: Inhibition of recombinant human activated HCK (230 to 497 residues) assessed as residual activity at 10 uM using GGMEDIYFEFMGGKKK as substrate measured after 40 mins in presence of [gamma33P]ATP by scintillation counting method
Tyrosine-protein kinase HCK (Homo sapiens), sequence (P08631 2-526 limits assumed): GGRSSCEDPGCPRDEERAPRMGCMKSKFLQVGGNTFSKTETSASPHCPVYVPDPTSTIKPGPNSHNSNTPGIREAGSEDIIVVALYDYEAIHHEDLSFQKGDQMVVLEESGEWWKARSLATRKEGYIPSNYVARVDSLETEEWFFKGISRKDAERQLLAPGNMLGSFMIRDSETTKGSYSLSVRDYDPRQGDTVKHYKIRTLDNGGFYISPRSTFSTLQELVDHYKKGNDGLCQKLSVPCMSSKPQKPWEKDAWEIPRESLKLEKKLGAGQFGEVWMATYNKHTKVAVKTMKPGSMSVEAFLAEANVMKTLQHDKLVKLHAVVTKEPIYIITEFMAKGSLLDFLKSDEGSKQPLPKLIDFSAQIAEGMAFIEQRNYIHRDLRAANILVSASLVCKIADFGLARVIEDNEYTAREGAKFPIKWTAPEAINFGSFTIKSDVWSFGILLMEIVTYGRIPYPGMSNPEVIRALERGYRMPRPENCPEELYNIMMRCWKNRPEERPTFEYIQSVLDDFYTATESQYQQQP

[18] = biological target: Serine/threonine-protein kinase pim-2 (Homo sapiens) (UniProt Q9P1W9); assay: Inhibition of recombinant human Pim2 (2 to end residues) assessed as residual activity at 10 uM using RSRHSSYPAGT as substrate measured after 40 mins in presence of [gamma33P]ATP by scintillation counting method
[19] = biological target: SRSF protein kinase 2 (Homo sapiens) (UniProt P78362); assay: Inhibition of human SRPK2 (46 to end residues) using RSRSRSRSRSRSRSR as substrate measured after 40 mins in presence of [gamma33P]ATP by scintillation counting method; set-up: scale not given: the % may be the effect or the level left
SRSF protein kinase 2 (Homo sapiens), sequence (P78362 whole entry, looked up): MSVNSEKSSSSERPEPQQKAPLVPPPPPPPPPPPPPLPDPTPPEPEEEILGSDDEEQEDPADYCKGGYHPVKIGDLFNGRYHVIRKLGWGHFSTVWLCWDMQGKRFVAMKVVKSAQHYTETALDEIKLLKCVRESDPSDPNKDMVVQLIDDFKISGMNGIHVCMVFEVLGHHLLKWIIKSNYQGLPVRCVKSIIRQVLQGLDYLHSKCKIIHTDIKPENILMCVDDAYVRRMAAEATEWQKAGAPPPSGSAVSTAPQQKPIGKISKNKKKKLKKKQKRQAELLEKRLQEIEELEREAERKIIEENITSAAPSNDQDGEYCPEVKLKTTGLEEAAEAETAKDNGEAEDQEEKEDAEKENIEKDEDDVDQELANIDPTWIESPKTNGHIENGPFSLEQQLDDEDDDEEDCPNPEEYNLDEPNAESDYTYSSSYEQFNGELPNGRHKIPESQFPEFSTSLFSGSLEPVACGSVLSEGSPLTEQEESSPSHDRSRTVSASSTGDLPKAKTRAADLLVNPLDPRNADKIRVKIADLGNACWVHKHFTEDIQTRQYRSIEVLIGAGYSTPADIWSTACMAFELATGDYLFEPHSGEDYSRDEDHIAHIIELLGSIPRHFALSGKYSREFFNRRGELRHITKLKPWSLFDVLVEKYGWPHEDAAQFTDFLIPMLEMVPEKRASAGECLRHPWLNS

[20] = biological target: Serine-protein kinase ATM (Homo sapiens) (UniProt Q13315); assay: Inhibition of recombinant full-length human ATM assessed as residual activity at 10 uM using GST-cMyc-p53 as substrate measured after 40 mins by ELISA

Cc1cc(C)c(CNc2nc(Cl)nc3c2ncn3C2CCCC2)c(=O)[nH]1
Activity [1]: 71%
Activity [2]: 114%
Activity [3]: 126%
Activity [4]: 108%
Activity [5]: 110%
Activity [6]: 63 to 75%
Activity [7]: 108%
Activity [8]: 106%
Activity (Homo sapiens): 93.5%
Activity (Mus musculus): 106%
Activity [9]: 132%
Activity [10]: 116%
Activity (SW-620 [11]): Dose-dependent effect
Activity (SW-620 [12]): Active
Activity [13]: Non-Toxic
Activity [14]: 96.5%
Activity [15]: 85.5%
Activity [16]: 94.5%
Activity [17]: 115%
Activity [18]: 104%
Activity [19]: 106%
Activity [20]: 95.5%
